Data from US4419364A, “Bronchospasmolytic carbamate derivatives” (priority 1980, dated 1983).
Where “and” joins values, the source holds several entries; their conditions need not be identical. Equal entries are not always repeated. Entries after “also recorded” stand apart in the source; their conditions may differ. Structures can show the parent of a compound that is named as a salt. Where two headings read alike, the source gives them in different places.

Legend:
[1] = In vitro test on isolated guinea-pig auricles (chronotropic and inotropic effect); design: species or system guinea-pig (Dunkin Hartley, male); settings: guinea pig, isolated auricles; relative values; eserine 1·10^-6 mol/l; read-out: Chronotropic effect on isolated auricle (relative values)
Description: (§1) Male guinea-pigs strain Dunkin Hartley (400-500 g) were used. After bleeding and removal of the heart the auricles were dissected free from the ventricular part and submerged into carbogen aerated Krebs solution of 37°. The frequency and force of the spontaneously beating preparation was recorded by a Grass transducer FT03. In the polygraph (Grass 7D) the signals from the isometric transducer passed a trigger function from the drive amplifier to the tachograph to record the rate.
(§2) The esterase inhibitor eserine was added to a concentration of 1·10^-6 mol/l in the organ bath before the drugs to be tested were added. The intrinsic activity of the test compounds on the heart preparation, that is their effect on heart rate (chronotropic effect) and their effect on the force of the heart beats (inotropic effect), and their possible interaction with terbutaline was studied.

[2] = test system: isolated auricles from guinea-pig heart; assay: as above; design: species or system guinea-pig (Dunkin Hartley, male)
Description: as §1, §2

[3] = Duration of serum levels of terbutaline after oral administration of test compounds to unanaesthetized dogs; assay type: in vivo, dogs (Beagle, male); settings: for concentration at 1 h: 1 hour after administration; for concentration at 2 h: 2 hours after administration; for concentration at 3 h: 3 hours after administration; for concentration at 4 h: 4 hours after administration; for concentration at 6 h: 6 hours after administration
Description: (§3) Five dogs (Beagle, .male., 13-18 kg) have been used repeatedly in the study. Each dog was used at most once a week. Food was withheld from the animals the night before the experiment (water ad libitum). The test compound was dissolved in 8 ml of distilled water, and delivered into the back of the mouth by use of a syringe and a short tube. This oral supply was followed by a water rinse of 8 ml.
(§4) The blood was collected from the cephalic veins in the forelegs by use of evacuated tubes. The esterase inhibitor diisopropylfluophoshate (DFP) was added, the samples centrifugated (+5°) and the amount of terbutaline in plasma determined by a massfragmentographic analysis method. The serum level of terbutaline indicates the degree of bronchospasmolytic effect of the test compounds.
(§5) The amounts of the test substances to be administered were selected so that the level of terbutaline corresponds to the serum levels obtained and found effective in patients at clinical use, that is a level of terbutaline of at least 2 ng/ml serum for 6 to 8 hours. The doses of the test substances of the invention were selected so that the serum levels of terbutaline obtained would correspond approximately with the serum levels obtained after administration of terbutaline per se.
The test results are given in Table 1 below, where the time course of the serum level of terbutaline in the test animals is given. Each set of serum levels is the result of test in one dog. The boxed time interval represents the interval where a clinically effective serum level of terbutaline is obtained. Thus, the boxed interval represents the clinically useful duration of the test compounds.

[4] = test system: isolated tracheal muscle from guinea-pig; assay: In vitro test on isolated guinea-pig trachea (relaxation of pilocarpine-contracted trachea); settings: for EC50: Cavia porcellus, pilocarpine-contracted, eserine 1·10^-6 mol/l, read-out: Concentration of test substance producing 50% relaxation of the trachea (EC50)
Description: The trachea from guinea-pigs was dissected out, cut spirally and transferred to a 10 ml organ bath containing Krebs solution of 37° and aerated with carbogen. The tracheal strip was contracted by pilocarpine (4·10^-6 mol/l) producing a tension of about 1.5 g. Isometric recording was made by use of a transducer FT03 and Grass polygraph 7D. Before the administration of the test compound the esterase inhibitor eserin was added to the bath in a concentration of 1·10^-6 mol/l. The concentration of the test substances which produces 50% relaxation (EC50) of the pilocarpine contracted trachea was recorded as well as potentiating or inhibiting influence of the test substances of the invention on the relaxing effect of terbutaline. In this last mentioned test the muscle preparation was pretreated with the test compounds during 5 minutes, before the response of terbutaline was recorded.

[5] = test system: histamine-induced bronchospasm in unanaesthetized guinea-pigs; assay: Protecting effect against histamine-induced bronchospasm after oral administration in guinea-pigs; assay type: in vivo, guinea-pigs (Dunkin-Hartley, male); settings: for ED50: Cavia porcellus, 0.05 h, histamine aerosol, read-out: Dose protecting 50% of the test animals for more than 3 minutes (ED50)
Description: Male guinea-pigs, Dunkin-Hartley strain, 150-200 g, were used in the study. The animals were starved for about 15 hours (water ad libitum) before the administration, by a stomach tube, of test compound or vehicle (controls). To establish an adequate time period between administration and histamine exposure, the maximum plasma level of terbutaline produced from the hydrolysis of the given pro-drugs of terbutaline was determined. Thus, blood samples (in pre-experimental series) were collected from guinea-pigs at different times after the administration of the test compound and the plasma level of tarbutaline was determined by a massfragmentographic analysis. A peak in the plasma turbutaline was noted 50-60 minutes after the administration, and this time was selected as time for start of histamine exposure.
The histamine aerosol was generated by Bird inline nebulizers from a solution containing 0.02% histamine-HCl and 3% glycerole. The protecting effect was estimated from the delay in appearance of signs of anoxia in drug-treated animals. […] Drug-treated guinea-pigs without any signs of respiratory influence from the histamine during these first 3 minutes were denoted as protected.

heart rate in dogs = assay: In vivo test on the effect on the heart rate in dogs; design: species or system dogs (Beagle, male); settings: oral; for Slope of the line of increase in heart rate vs. logarithm of corresponding serum conc.: serum conc. of terbutaline; for Slope of the line of increase in heart rate vs. logarithm of corresponding serum conc. / Correlation coefficient (increase in heart rate vs. logarithm of serum conc.): terbutaline 0.01-0.1 mg/kg, test compound 0.3-3 mg/kg
Description: as §3, with “solved” for “dissolved”
as §4, with “diisopropylfluophosphate” for “diisopropylfluophoshate”
as §5, with “level of terbutaline, when administered per se, corresponds to” for “level of terbutaline corresponds to”
The heart rate was determined by a stethoscope (the mean of three determinations during a 5-minute periode) before the administration of drug and before each blood sampling.
The relative effect of the test compounds on the heart rate of the test animals was illustrated by plotting in a diagram the increase in heart rate measured at a certain serum concentration of terbutaline versus the logarithm of the said terbutaline concentration in serum. Only values before and up to the maximal increase in heart rate were used. This method will produce a graph consisting of a substantially straight line. When such a line is drawn from each test compound, it can be seen from the slope of the line how the heart rate is correlated to the serum concentration of the test compound.

[6] = cited from earlier work; for Duration of bronchospasmolytic activity, in words: relative to a marketed comparator
[7] = dog, serum, po, 0.03 mg/kg, read-out: Serum level of terbutaline
[8] = dog, serum, po, 0.1 mg/kg, read-out: Serum level of terbutaline

For `CN(C)C(=O)Oc1cc(OC(=O)N(C)C)cc(C(O)CNC(C)(C)C)c1` (stereo not shown) [I, 1-[bis-(3',5'-N,N-dimethylcarbamoyloxy)phenyl]-2-N-tert.butylaminoethanol hydrochloride], the Emax [1] was 0%, the “Chronotropic or inotropic effect, in words” value ([2]; isolated guinea-pig auricles) was “did not show any chronotropic or inotropic effect” and the “Potentiating or inhibiting effect on the chronotropic and inotropic effect of terbutaline” value ([2]; test compound in same concentration as terbutaline) was “No potentiating or inhibiting effect”. For the same compound, the “Duration of terbutaline serum level of 2 ng/ml or more” value ([3]; p.o., dogs) was at least 16 h, the “Duration of clinically useful serum level relative to terbutaline” value ([3]; p.o., dogs, terbutaline 2 ng/ml serum or higher) was “at least twice as long” and the “Potentiating or inhibiting effect of the test substance on the bronchodilating effect of terbutaline” value ([4]; 5 minutes pretreatment, hydrochloride) was “none and No potentiating or inhibiting activity”. The EC50 [4] was over 20000 nM, the “Bronchodilating effect (intrinsic), in words” value ([4]; isolated guinea-pig trachea, hydrochloride) was “did not produce any bronchodilating effect; also recorded: did not exert any intrinsic bronchodilating effect” and the ED50 [5] was 2.7 mg/kg and 6.7 µmol/kg. The “Bronchospasmolytic potency relative to terbutaline” value ([5]; on molar basis, in words) was “less potent than the reference substance terbutaline”, the “Increase in heart rate relative to terbutaline, in words” value (heart rate in dogs; hydrochloride) was “relatively much lower increase in heart rate than the reference compound terbutaline; also recorded: considerably reduced stimulating effect on the heart rate compared with the heart rate stimulating effect of terbutaline” and the “Slope of the line of increase in heart rate vs. logarithm of corresponding serum conc.” value (heart rate in dogs) was 0.63. For the same compound, the “Correlation coefficient (increase in heart rate vs. logarithm of serum conc.)” value (heart rate in dogs) was 0.9324.
In the case of `Cc1ccc(C(=O)Oc2ccc(C(O)CNC(C)(C)C)cc2OC(=O)c2ccc(C)cc2)cc1` (stereo not shown) [bitolterol], the “Duration of bronchospasmolytic activity, in words” value [6] is listed as “comparable with that of salbutamol”.
In the case of `CC(C)(C)NCC(O)c1ccc(O)c(CO)c1` (stereo not drawn) [salbutamol, α-(tert.)-butylaminomethyl-4-hydroxy-m-xylene-α-diolsulphate], the “Duration of bronchospasmolytic activity, in words” value [6] is listed as “about equal to the duration of terbutaline”.
With `CC(C)(C)NCC(O)c1cc(O)cc(O)c1` (stereo not shown) [terbutaline, 1-(3',5'-dihydroxyphenyl)-2-t-butylaminoethanol sulphate] the Emax [1] was 100%, the “Inotropic effect on isolated auricle (relative values)” value ([2]; relative values, eserine 1·10^-6 mol/l) was 1.0 and the concentration at 1 h [3, 7] was 4.8 ng/mL. For the same compound, the concentration at 2 h [3, 7] was 2.9 ng/mL, the concentration at 3 h [3, 7] was 2.4 ng/mL and the concentration at 4 h [3, 7] was 2.2 ng/mL. The concentration at 6 h [3, 7] was 1.9 ng/mL, the concentration at 1 h [3, 8] was 5.7 ng/mL and the concentration at 2 h [3, 8] was 13.7 ng/mL. The concentration at 3 h [3, 8] was 9.2 ng/mL, the concentration at 4 h [3, 8] was 6.1 ng/mL and the concentration at 6 h [3, 8] was 3.4 ng/mL. It also gave a concentration at 8 h ([3]; dog, serum, po, 0.1 mg/kg, 8 hours after administration, read-out: Serum level of terbutaline) of 2.2 ng/mL, a concentration at 12 h ([3]; dog, serum, po, 0.1 mg/kg, 12 hours after administration, read-out: Serum level of terbutaline) of 1.1 ng/mL and a concentration at 16 h ([3]; dog, serum, po, 0.1 mg/kg, 16 hours after administration, read-out: Serum level of terbutaline) of 0.8 ng/mL. For the same compound, the concentration at 24 h ([3]; dog, serum, po, 0.1 mg/kg, 24 hours after administration, read-out: Serum level of terbutaline) was 0.35 ng/mL, the “Serum concentration of terbutaline necessary for desired therapeutic activity” value ([6]; Hornblad et al. (1976)) was “at least 2 ng/ml” and the “Duration of terbutaline serum level at clinical use” value ([6]; normally obtained at clinical use of terbutaline, 2 ng/ml) was “about 8 hours”. For the same compound, the EC50 [4] was 210 ± 50 nM, the ED50 [5] was 0.4 mg/kg and 1.5 µmol/kg and the “Slope of the line of increase in heart rate vs. logarithm of corresponding serum conc.” value (heart rate in dogs) was 1.04. For the same compound, the “Correlation coefficient (increase in heart rate vs. logarithm of serum conc.)” value (heart rate in dogs) was 0.9598.
